Laboratory results published in US9884084B2, “Bone loss preventing and bone regeneration or bone formation promoting pharmaceutical composition comprising muramyl dipeptide” (SNU R&DB FOUNDATION, priority 2012, dated 2018).

Assays:
Runx2 [1] = experiment: 6XOSE/Luc luciferase reporter assay of Runx2 transcriptional activity in MC4 cells; format: cell-based
Experimental: Further to examine whether the increased expression of Runx2, which is a transcription factor, affects the expression of other genes regulated by Runx2, the following experiments were performed. For this, MC4 cells were seeded onto each well of a 96 well plate at the concentration of 20,000 cells/well and the cells were transfected with a plasmid 6XOSE/Luc reporter vector (Journal of Biological Chemistry. 285: 3568-3574 (2010)) which expresses luciferase gene under the control of osteocalcin using Lipofectamin® (Life technologies, Inc) according to the manufacturer's instruction. The promoter in the plasmid contains […] to each of which Runx2 binds. By binding of Runx2 to the motif, the expression of luciferase increases. After 16 hrs after the transfection, MDP at the concentration as indicated in FIG. 3 was added to the cells. After 24 hrs, the cells were lysed and the luciferase activity was measured using Luciferase detection kit (Promega, USA) according to the manufacturer's instruction to quantify the mRNA level of osteocalcin gene, which is affected by Runx2.
In addition to MDP as used in Example 2-1, as a derivative thereof, M-TriLYS (MurNAc-Ala-D-isoGln-Lys, N-acetylmuramyl-L-alanine-D-isoglutamine-lysine) and 6-O-stearoyl-N-acetylmuramyl-L-alanyl-D-isoglutamine (L18-MDP) were used to examine the effect of the derivatives on the expression of Runx2 at transcription level. M-TriLYS is a muropeptide obtainable from peptidoglycans of lactobacillus or salivarius and contains in its structure muramyl dipeptide. L18-MDP is a MDP derivative containing C18 fatty acid.

[2] = tested on: osteoblast cell line MC4 cells (MC3T3-E1 Subclone 4); experiment: Osteoblast differentiation by alkaline phosphatase (ALP) staining, MC4 cells; format: cell-based; conditions: 0.1, 1 and 10 μg/ml MDP, 5 days, differentiation medium; FIG. 1
Experimental: N-acetylmuramyl-L-Alanyl-D-Isoglutamine commercially available from Invivogen Inc. was dissolved in endotoxin free purified water to make a solution of 5 mg/ml. To assess the effect of muramyl dipeptide on the differentiation of osteoblast, osteoblast cell line MC4 cells (ATCC CRL-2593:MC3T3-E1 Subclone 4) were incubated in an ascorbic acid free-αMEM medium containing 10% fetal bovine serum, 50 unit/ml penicillin, 50 μg/ml streptomycin at 37° C. under 100% humidity and 5% CO2 atmosphere. The medium was changed every 3 days.
Then MC4 cells were seeded onto each well of a 48 well plate at the concentration of 20,000 cells/well and then after 16 hrs, each well was treated for 5 days with 400 μl of 0, 0.1, 1 and 10 μg/ml of MDP as prepared above in the differentiation medium (50 μg/ml ascorbic acid and 10 mM beta-glycerophosphate containing αMEM), during which half of the medium was changed twice with the differentiation medium. The effect on the differentiation was analyzed using alkaline phosphatase (ALP) staining. Results are shown in FIG. 1, in which the effect on the differentiation was determined by the number of cells showing red-purple color as well as the intensity of the color. […] Each experiment was repeated at least 3 times.

Runx2 [3] = experiment: RT-PCR of Runx2 mRNA in MC4 cells; format: cell-based; conditions: 6 hrs, normalized relative to β-actin, FIG. 2 upper part
Experimental: Then, total mRNA was extracted from the cells and incubated with random primer at 70° C. for 5 min. After that reverse transcriptase, buffer for RT and dNTPs were added to the reaction mixture and incubated at 42° C. for 1 hr to synthesize cDNA, which was then used as a template for PCR to amplify Runx2 using specific primers as described in Table 1 and using the following condition: cDNA was initially denatured at 94° C. for 5 min followed by 25 cycles at 95° C. for 40 s, 59° C. for 40 s, and 72° C. for 40 s and final extension for 5 min at 72° C. […] The results were normalized relative to β-actin data.

Runx2 [4] = experiment: Immunoblot of Runx2 protein in MC4 cells; format: cell-based; conditions: 24 hrs, β-actin loading control, FIG. 2 lower part
Experimental: Also to examine the effect at the protein level, whole cell extract was prepared from the cells treated with MDP for 24 hrs as described above, and 40 μg of extract was used for SDS-PAGE electrophoresis. Then the gel was transferred to a PVDF membrane and immunoblot was performed using an antibody specific to Runx2 (Abcam, USA). […] The β-actin was used as a loading control.

WT C57BL/6 (B6) mice [5] = experiment: Bone volume of mouse femur by microCT after MDP administration; format: in vivo
Experimental: Six-week-old WT C57BL/6 (B6) mice were purchased from Orient Company Ltd (Seoul, Korea). The animals were maintained at a controlled temperature (21±1° C.) and humidity (55±1%) with a 12/12-h light-dark cycle without any restriction of food and water. All animal experiments were performed following the protocol approved by the Institutional Animal Care and Use Committee of CRISNUH.
(§1) To each mouse, 1.25 mg/kg of MDP prepared as described in Example 1 was administered twice with a 4 day interval by intraperitoneal injection. Physiological saline was used as a control. The second injection was given 4 days after the first injection and after 3 days the mice were sacrificed and used for bone volume analysis.
A right femur was removed from the sacrificed mouse and stripped of the muscle. The excised femur was then fixed in 10% of neutral formalin for one day at the least, which was then analyzed for bone volume using microCT. […] In FIG. 5, BV/TV=Bone volume/Tissue volume=% bone volume.

WT C57BL/6 (B6) mice [6] = experiment: Histological observation (H&E) of mouse femur; format: in vivo; conditions: 1.25 mg/kg i.p. twice, vs physiological saline control; FIG. 6
Experimental: as §1
The femur used for the analysis of bone volume in Example 3-3 was used for a histological observation. For this, the femur was demineralized in 10% EDTA for 7 days and washed with running water for 12 hrs in a tissue capsule. After that, the femur was treated with alcohol and xylene and embedded in paraffin, from which sections having a thickness of 4 μm were prepared. The sections were then placed on a slide glass and deparaffinized at 65° C. for 30 min and treated with Hematoxylin and Eosin according to the conventional method.
The slides were then examined with a light microscope to observe the bone formation.

osteoblast = experiment: OPG and RANKL regulation in the osteoblast (data not shown); format: cell-based
[7] = tested on: mouse model treated with GST-RANKL; experiment: GST-RANKL induced bone loss mouse model, microCT bone volume; format: in vivo; conditions: pretreatment 1.25 mg/kg i.p. twice, then GST-RANKL 1 mg/kg i.p. three times; vs controls not pretreated; FIG. 8
Experimental: Muramyl dipeptide was administered to a mouse by an intraperitoneal injection two times with four day interval between the administration at the concentration of 1.25 mg/kg. After 3 days of the administration, GST-RANKL recombinant protein was intraperitoneally administered at the concentration of 1 mg/kg three times with a 24 hr interval between the administrations, The bone volume was analyzed at 1 day after the last administrated with GST-RANKL. The recombinant protein was prepared using a RANKL expression vector, pGEX-GST-RANKL (J. Clin Invest. 106:1481-1488 (2000)), which was expressed in E. coli and the protein was purified using a sepharose gel attached with glutathione (glutathione-sepharose gels, Sigma-Aldrich). The purified protein was then treated with Detoxi-gel endotoxin removing gel (Thermo Scientific, USA) to remove endotoxin and used for the experiment. Seven days after the administration, mice were sacrificed and the bone volume was measured using a microCT. As controls, mice treated only with physiological saline, GST-RANKL or physiological saline and GST-RANKL in a consecutive order were used.

[8] = tested on: RANKL-primed osteoclast precursors; experiment: Osteoclast differentiation from RANKL-primed osteoclast precursors, TRAP staining; conditions: 20 ng/ml M-CSF, 3 days; FIG. 7 right graph
Experimental: Bone marrow cells (BMs) were isolated from the long bones of mouse and were cultured in α-MEM supplemented with 10% FBS, 100 U/ml penicillin and 100 μg/ml streptomycin, and 2 ng/ml M-CSF for 1 day. Suspended cells were differentiated into BMMs with 20 ng/ml M-CSF for 3 days. […] To make RANKL-primed osteoclast precursors, the BMMs were stimulated with 20 ng/ml mouse RANKL for 48 h. The BMMs were incubated with 20 ng/ml M-CSF in the presence or absence of MDP for additional 3 days.
The differentiation was determined by tartrate resistant acid phosphatase (TRAP) staining using Leukocyte acid phosphate-staining kit (Sigma-Aldrich Chemical, USA) according to the manufacturer's instruction. After the staining, TRAP-positive multinucleated cells with at least 3 nuclei were enumerated as mature osteoclasts with an inverted phase-contrast microscope and results are shown in FIG. 7.

[9] = 1.25 mg/kg i.p. twice, vs physiological saline control, FIG. 5

Substance	expression of Runx2 at the transcriptional level (reporter) (Runx2 [1]; FIG. 3B)	activity on Runx2 compared with MDP (Runx2 [1]; higher than that of MDP, FIG. 3B)	differentiation of MC4 (ALP staining) [2]	mRNA expression of Runx2 (Runx2 [3])	expression of Runx2 protein (Runx2 [4])	luciferase activity (transcription of osteocalcin, affected by Runx2) (Runx2 [1]; MC4 cells, 24 hrs after addition, FIG. 3A)	bone volume (microCT 3D image) (WT C57BL/6 (B6) mice [5]; 1.25 mg/kg i.p. twice with 4 day interval, right femur, vs physiological saline, FIG. 4)	Trabecular bone volume (BV/TV) (WT C57BL/6 (B6) mice [5]; [9])	Trabecular number (Tb.N) (WT C57BL/6 (B6) mice [5]; [9])	Trabecular thickness (Tb.Th) (WT C57BL/6 (B6) mice [5]; [9])	spongy bone in femur sections (H&E) (WT C57BL/6 (B6) mice [6])	Osteoprotegerin (OPG) regulation in the osteoblast (osteoblast)	RANKL regulation in the osteoblast (osteoblast)	indirect effect on osteoclast differentiation (osteoblast; through OPG and RANKL in the osteoblast)	bone loss due to GST-RANKL (bone volume, microCT) [7]	osteoclast differentiation from RANKL-primed osteoclast precursors [8]
6-O-stearoyl-N-acetylmuramyl-L-alanyl-D-isoglutamine [L18-MDP]	increased the expression of Runx2 at the transcriptional level	10 times														
N-acetylmuramyl-L-Alanyl-D-Isoglutamine [MDP]	increased the expression of Runx2 at the transcriptional level		increased in a concentration dependent manner	increased after MDP treatment in a concentration dependent manner	increased the expression of Runx2 protein	increased the transcription of osteocalcin	increase in bone volume	increased statistically significantly	increased statistically significantly	increased statistically significantly	more spongy bone was observed	up-regulation	down-regulation	indirectly alleviated osteoclast differentiation	reduced	did not affect
N-acetylmuramyl-L-alanine-D-isoglutamine-lysine [MTnLYS]	increased the expression of Runx2 at the transcriptional level															
